Values after ≈ are worked out from the molar mass of the structure shown. Residues, ends and D or L forms follow the SMILES beside them. No end group written: not given here. *: point of attachment. Myristoyl = CCCCCCCCCCCCCC(=O)*; Lauroyl = CCCCCCCCCCCC(=O)*; Decanoyl = CCCCCCCCCC(=O)*; Octanoyl = CCCCCCCC(=O)*; Hexanoyl = CCCCCC(=O)*
Columns and labels:
Type in all cases: cell-based
P. aeruginosa PAO1 = tested on: P. aeruginosa PAO1
Method: (§1) The antibacterial activity of peptides was evaluated using a standard broth microdilution protocol (Clinical Laboratories Standards Institute (CLSI): M07-A10. Methods for Dilution Antimicrobial Susceptibility Tests for Bacteria that grow aerobically; Approved Standard, Tenth Edition, 2015) with minor modifications as described (Mishra, et al. (2019) Proc. Natl. Acad. Sci., 116:13517-13522). In brief, peptides (10 μL per well) with 2-fold dilutions were made in 96-well polystyrene microplates. Subsequently, the logarithmic phase bacterial cultures (i.e., optical density at 600 nm ˜0.5) were diluted to 0.001 OD and aliquoted to 90 μL per well. The plates were incubated overnight at 37°° C. Bacterial controls were treated with water, and the wells containing only the TSB media were used as blank. Positive controls included the parent peptide LL-37 as well as KR12. Post incubation, the plates were read at 630 nm using ChroMate® 4300 Microplate Reader (Awareness Technology, FL).

S. aureus USA300 LAC = conditions: USA300
Method: as §1
(§2) To study the influence of medium conditions on the antimicrobial activity of peptides against S. aureus USA300, different pH, sodium chloride (NaCl), human sera were included into the antibacterial assays. Control experiments in TSB without any additions (pH 7.4) were set up in the same manner. In addition, antimicrobial activities of human LL-37, KR12, and C10-KR8d were compared in 10%, 50%, and 100% TSB as well as in TSB and MHB using E. coli ATCC 25922 and S. aureus USA300 LAC.

E. coli ATCC 25922 = tested on: E. coli ATCC 25922
Method: as §1, §2

[1] = tested on: human red blood cells (hRBCs); conditions: red cells of human, 1 h
Method: Hemolytic assays of peptides were performed as described (Lakshmaiah, et al. (2020) Proc. Natl. Acad. Sci., 117:19446-19454). Briefly, human red blood cells (hRBCs) were obtained from UNMC Blood Bank. The cells were washed 3× with isotonic saline (0.9% NaCl) and diluted to 2% (v/v). Peptides at various concentrations were added to the 2% blood cells and incubated at 37° C. for 1 hour. Post-incubation, the plates were spun at 2000 rpm for 10 minutes; aliquots of the supernatant were carefully transferred to a fresh 96-well microplate. The amount of cells lysed is proportional to the hemoglobin released and was measured at 545 nm using a ChroMate® microplate reader (Awareness Technology, FL). The percent lysis was calculated by assuming 100% release when human blood cells were treated with 1% Triton™ X-100, and 0% release when incubated with PBS. The peptide concentration that caused 50% lysis of hRBCs is defined as HC50. The cell selectivity index (CSI) was calculated as the ratio between HC50 and the MIC of the corresponding peptide against MRSA.

[2] = tested on: Klebsiella pneumonia ATCC 13883; test: Antibacterial broth microdilution MIC
Method: as §1

Compound	MIC (μM) PA (P. aeruginosa PAO1) [µM]	MIC (μM) SA (S. aureus USA300 LAC) [µM]	MIC (μM) EC (E. coli ATCC 25922) [µM]	HC50 [1] [µM]	MIC (μM) KP [2] [µM]	Minimal inhibitory concentration against S. aureus, 10% TSB (S. aureus USA300 LAC) [µM]	Minimal inhibitory concentration against S. aureus, 50% TSB (S. aureus USA300 LAC) [µM]	Minimal inhibitory concentration against S. aureus, 100% MHB (S. aureus USA300 LAC) [µM]	Minimal inhibitory concentration against S. aureus, 100% TSB (S. aureus USA300 LAC) [µM]	Minimal inhibitory concentration against E. coli, 10% TSB (E. coli ATCC 25922) [µM]	Minimal inhibitory concentration against E. coli, 50% TSB (E. coli ATCC 25922) [µM]	Minimal inhibitory concentration against E. coli, 100% MHB (E. coli ATCC 25922) [µM]
CCCCCCCCCCCC(=O)N[C@@H](CCCCN)C(=O)N[C@@H](CCCNC(=N)N)C(=O)N[C@H](C(=O)N[C@@H](Cc1c[nH]c2ccccc12)C(=O)N[C@@H](CCC(N)=O)C(=O)N[C@@H](CCCNC(=N)N)C(=O)N[C@H](C(=O)N[C@@H](CCCCN)C(=O)N[C@@H](CC(=O)O)C(=O)N[C@@H](Cc1ccccc1)C(=O)N[C@@H](CC(C)C)C(=O)N[C@@H](CCCNC(=N)N)C(N)=O)[C@@H](C)CC)[C@@H](C)CC [Peptide C12-KR12] (Lauroyl-KRIWQRIKDFLR-NH2)	>50	6.2 (≈ 11.4 µg/mL)	>50	<25	12.5 (≈ 23 µg/mL)	–	–	–	–	–	–	–
CCCCCCCCCC(=O)N[C@@H](CCCCN)C(=O)N[C@@H](CCCNC(=N)N)C(=O)N[C@H](C(=O)N[C@@H](Cc1c[nH]c2ccccc12)C(N)=O)[C@@H](C)CC [Peptide C10-KR4] (Decanoyl-KRIW-NH2)	12.5 (≈ 9.44 µg/mL)	12.5 (≈ 9.44 µg/mL)	50 (≈ 37.8 µg/mL)	150	>50	–	–	–	–	–	–	–
CCCCCCCCCCCCCC(=O)N[C@@H](CCCCN)C(=O)N[C@@H](CCCNC(=N)N)C(=O)N[C@H](C(=O)N[C@@H](Cc1c[nH]c2ccccc12)C(=O)N[C@@H](CCC(N)=O)C(=O)N[C@@H](CCCNC(=N)N)C(=O)N[C@H](C(=O)N[C@@H](CCCCN)C(=O)N[C@@H](CC(=O)O)C(=O)N[C@@H](Cc1ccccc1)C(N)=O)[C@@H](C)CC)[C@@H](C)CC [Peptide C14-KR10] (Myristoyl-KRIWQRIKDF-NH2)	12.5 (≈ 20 µg/mL)	3.1 (≈ 4.96 µg/mL)	50 (≈ 80 µg/mL)	<25	6.2 (≈ 9.91 µg/mL)	–	–	–	–	–	–	–
CCCCCC(=O)N[C@@H](CCCCN)C(=O)N[C@@H](CCCNC(=N)N)C(=O)N[C@H](C(=O)N[C@@H](Cc1c[nH]c2ccccc12)C(=O)N[C@@H](CCC(N)=O)C(=O)N[C@@H](CCCNC(=N)N)C(=O)N[C@H](C(=O)N[C@@H](CCCCN)C(=O)N[C@@H](CC(=O)O)C(=O)N[C@@H](Cc1ccccc1)C(N)=O)[C@@H](C)CC)[C@@H](C)CC [Peptide C6-KR10] (Hexanoyl-KRIWQRIKDF-NH2)	50 (≈ 74.3 µg/mL)	25 (≈ 37.2 µg/mL)	50 (≈ 74.3 µg/mL)	>200	>50	–	–	–	–	–	–	–
CCCCCC(=O)N[C@@H](CCCCN)C(=O)N[C@@H](CCCNC(=N)N)C(=O)N[C@H](C(=O)N[C@@H](Cc1c[nH]c2ccccc12)C(=O)N[C@@H](CCC(N)=O)C(=O)N[C@@H](CCCNC(=N)N)C(N)=O)[C@@H](C)CC [Peptide C6-KR6] (Hexanoyl-KRIWQR-NH2)	>50	>50	>50	>200	>50	–	–	–	–	–	–	–
CCCCCC(=O)N[C@@H](CCCCN)C(=O)N[C@@H](CCCNC(=N)N)C(=O)N[C@H](C(=O)N[C@@H](Cc1c[nH]c2ccccc12)C(=O)N[C@@H](CCC(N)=O)C(=O)N[C@@H](CCCNC(=N)N)C(=O)N[C@H](C(=O)N[C@@H](CCCCN)C(N)=O)[C@@H](C)CC)[C@@H](C)CC [Peptide C6-KR8] (Hexanoyl-KRIWQRIK-NH2)	>50	>50	>50	>200	>50	–	–	–	–	–	–	–
CCCCCCCCCCCCCC(=O)N[C@@H](CCCCN)C(=O)N[C@@H](CCCNC(=N)N)C(=O)N[C@H](C(=O)N[C@@H](Cc1c[nH]c2ccccc12)C(=O)N[C@@H](CCC(N)=O)C(=O)N[C@@H](CCCNC(=N)N)C(=O)N[C@H](C(=O)N[C@@H](CCCCN)C(N)=O)[C@@H](C)CC)[C@@H](C)CC [Peptide C14-KR8] (Myristoyl-KRIWQRIK-NH2)	6.2 (≈ 8.29 µg/mL)	<1.5	12.5 (≈ 16.7 µg/mL)	<25	>50	–	–	–	–	–	–	–
KRIVQRIKDFLR-NH2 [KR12, reference compound]	25	–	50	>340	>50	6.2	>50	>50	>50	1.6	3.1	>50
CCCCCCCC(=O)N[C@@H](CCCCN)C(=O)N[C@@H](CCCNC(=N)N)C(=O)N[C@H](C(=O)N[C@@H](Cc1c[nH]c2ccccc12)C(=O)N[C@@H](CCC(N)=O)C(=O)N[C@@H](CCCNC(=N)N)C(N)=O)[C@@H](C)CC [Peptide C8-KR6] (Octanoyl-KRIWQR-NH2)	>50	>50	50 (≈ 50.6 µg/mL)	>200	>50	–	–	–	–	–	–	–
CCCCCCCCCC(=O)N[C@@H](CCCCN)C(=O)N[C@@H](CCCNC(=N)N)C(=O)N[C@H](C(=O)N[C@@H](Cc1c[nH]c2ccccc12)C(=O)N[C@@H](CCC(N)=O)C(=O)N[C@@H](CCCNC(=N)N)C(=O)N[C@H](C(=O)N[C@@H](CCCCN)C(=O)N[C@@H](CC(=O)O)C(=O)N[C@@H](Cc1ccccc1)C(N)=O)[C@@H](C)CC)[C@@H](C)CC [Peptide C10-KR10] (Decanoyl-KRIWQRIKDF-NH2)	–	1.5 (≈ 2.31 µg/mL)	3.1 (≈ 4.78 µg/mL)	50	6.2 (≈ 9.57 µg/mL)	–	–	–	–	–	–	–
CCCCCCCCCC(=O)N[C@@H](CCCCN)C(=O)N[C@@H](CCCNC(=N)N)C(=O)N[C@H](C(=O)N[C@@H](Cc1c[nH]c2ccccc12)C(=O)N[C@@H](CCC(N)=O)C(=O)N[C@@H](CCCNC(=N)N)C(N)=O)[C@@H](C)CC [Peptide C10-KR6] (Decanoyl-KRIWQR-NH2)	25 (≈ 26 µg/mL)	12.5 (≈ 13 µg/mL)	50 (≈ 52 µg/mL)	>340	>50	–	–	–	–	–	–	–
CCCCCCCCCCCC(=O)N[C@@H](CCCCN)C(=O)N[C@@H](CCCNC(=N)N)C(=O)N[C@H](C(=O)N[C@@H](Cc1c[nH]c2ccccc12)C(N)=O)[C@@H](C)CC [Peptide C12-KR4] (Lauroyl-KRIW-NH2)	6.2 (≈ 4.86 µg/mL)	3.1 (≈ 2.43 µg/mL)	12.5 (≈ 9.79 µg/mL)	30	>50	–	–	–	–	–	–	–
CCCCCCCCCCCC(=O)N[C@@H](CCCCN)C(=O)N[C@@H](CCCNC(=N)N)C(=O)N[C@H](C(=O)N[C@@H](Cc1c[nH]c2ccccc12)C(=O)N[C@@H](CCC(N)=O)C(=O)N[C@@H](CCCNC(=N)N)C(N)=O)[C@@H](C)CC [Peptide C12-KR6] (Lauroyl-KRIWQR-NH2)	6.2 (≈ 6.62 µg/mL)	3.1 (≈ 3.31 µg/mL)	12.5 (≈ 13.3 µg/mL)	75	>50	–	–	–	–	–	–	–
CCCCCCCCCCCC(=O)N[C@@H](CCCCN)C(=O)N[C@@H](CCCNC(=N)N)C(=O)N[C@H](C(=O)N[C@@H](Cc1c[nH]c2ccccc12)C(=O)N[C@@H](CCC(N)=O)C(=O)N[C@@H](CCCNC(=N)N)C(=O)N[C@H](C(=O)N[C@@H](CCCCN)C(=O)N[C@@H](CC(=O)O)C(=O)N[C@@H](Cc1ccccc1)C(N)=O)[C@@H](C)CC)[C@@H](C)CC [Peptide C12-KR10] (Lauroyl-KRIWQRIKDF-NH2)	–	1.5 (≈ 2.36 µg/mL)	6.2 (≈ 9.74 µg/mL)	<25	3.1 (≈ 4.87 µg/mL)	–	–	–	–	–	–	–

— US20240294572A1, “Antimicrobial Peptides” (priority 2021, published 2024)
